According to ChEMBL document CHEMBL6071212, “Studies of Structure-Activity Relationship of 2-(Pyrrolidin-1ylmethyl)-1H-pyrrole-Based ST2 Inhibitors and Their Inhibition of Mast Cells Activation” (ACS Med Chem Lett, 2024):
Calls of active or inactive are those of the source. No cut-off for these calls is given here.

Columns and labels:
[1] = Inhibition of ST2/IL-33 (unknown origin) by AlphaLISA assay; set-up: species or system Homo sapiens
[2] = Inhibition of ST2/IL-33 (unknown origin) expressed in HEK-Blue IL-33 cells assessed as decrease in NF-kappaB […]; format: cell-based; settings: Homo sapiens
[3] = Metabolic stability in mouse liver microsomes assessed as half life; format: ADME, Microsome
LAD2 [4] = assay: Inhibition of IL-1beta secretion in IL-33/substance P-stimulated human LAD2 cells at 50 uM incubated for 24 hrs followed by 48/80 addition measured after 30 mins by ELISA; format: functional, cell-based
LAD2 [5] = assay: Inhibition of ST2 in IL-33-stimulated human LAD2 cells assessed as residual activity at 30 uM incubated for 24 hrs by flow cytometry (reference value: 24.18 %); format: cell-based
LAD2 [6] = assay: Inhibition of IL-1beta secretion in IL-33/substance P-stimulated human LAD2 cells incubated for 24 hrs followed by 48/80 addition measured after 30 mins by ELISA; format: functional, cell-based; settings: dose 10-30 µM, time 24.5 hrs

SMILES | IC50 [1] [µM] | IC50 [2] [µM] | other results
CN(C)c1ccc(C2CCCN2Cc2ccc(-c3ccc([N+](=O)[O-])c(C#N)c3)[nH]2)cc1 (configuration not stated) | 12.8 | – | –
CN(C)c1ccc(C2CCCN2Cc2cc(-c3ccc([N+](=O)[O-])cc3)[nH]n2)cc1 (configuration not stated) | > 100 | – | –
CN(C)c1ccc(C2CCCN2Cc2ccc(-c3ccc([N+](=O)[O-])cc3)s2)cc1 (configuration not stated) | 14.1 | – | –
Cc1cc(-c2ccc(CN3CCCC3c3cccc(N4CCC4)c3)[nH]2)ccc1[N+](=O)[O-] (configuration not stated) | 14.7 | – | –
Cc1cc(-c2ccc(CN3CCCC3c3ccc(N(C)C)cc3)[nH]2)ccc1[N+](=O)[O-] (configuration not stated) | 8.12 | 9.57 | half-life [3]: 1.86 min
COc1cc(OC)c2c(=O)cc(-c3ccc(OC)c(OC)c3)oc2c1 | – | – | inhibition (LAD2 [4]): Active
Cc1ccc(-c2ccc(CN3CCCC3c3ccc(N(C)C)cc3)[nH]2)c([N+](=O)[O-])c1 (configuration not stated) | 20 | 10.3 | –
CC(C)Oc1cc(-c2ccc(CN3CCCC3c3ccc(N(C)C)cc3)[nH]2)ccc1[N+](=O)[O-] (configuration not stated) | 15.6 | 10.2 | half-life [3]: 1.91 min
CN(C)c1ccc(C2CCCN2Cc2ccc(-c3ccc([N+](=O)[O-])c(C(N)=O)c3)[nH]2)cc1 (configuration not stated) | 37.1 | – | –
CN(C)c1ccc(C2CCCN2Cc2ccc(-c3ccc([N+](=O)[O-])c(C(=O)O)c3)[nH]2)cc1 (configuration not stated) | > 100 | – | –
CN(C)c1ccc(C2CCCN2Cc2ccc(-c3ccc([N+](=O)[O-])c(CO)c3)[nH]2)cc1 (configuration not stated) | 20.3 | – | –
CN(C)c1ccc(C2CCCN2Cc2ccc(-c3ccc([N+](=O)[O-])cc3)o2)cc1 (configuration not stated) | 17.4 | – | –
Cc1cc(-c2ccc(CN3CCCC3c3cccc(N(C)C)c3)[nH]2)ccc1[N+](=O)[O-] (configuration not stated) | 10 | – | –
COC(=O)c1cc(-c2ccc(CN3CCCC3c3ccc(N(C)C)cc3)[nH]2)ccc1[N+](=O)[O-] (configuration not stated) | 8.1 | 6.52 | half-life [3]: 2.2 min
Cc1cc([N+](=O)[O-])ccc1-c1ccc(CN2CCCC2c2ccc(N(C)C)cc2)[nH]1 (configuration not stated) | 17.9 | 7.26 | –
CN(C)c1ccc(C2CCCN2Cc2ccc(-c3ccc([N+](=O)[O-])c(N4CCCC4)c3)[nH]2)cc1 (configuration not stated) | 7 | 7.19 | half-life [3]: 1.47 min; inhibition (LAD2 [6]): Dose-Dependent Effect
CN(C)c1ccc(C2CCCN2Cc2ccc(-c3ccc(C(N)=O)cc3)[nH]2)cc1 (configuration not stated) | 79.6 | – | –

The remaining compounds from weak to strong by IC50 [1], led by results:

IC50 [1] [µM] | IC50 [2] [µM] | SMILES | other results
80.2 | – | CN(C)c1ccc(C2COCCN2Cc2ccc(-c3ccc([N+](=O)[O-])cc3)[nH]2)cc1 (configuration not stated) | –
75.6 | – | Cc1cc(-c2ccc(CN3CCCC3c3cccc(N[C@@H]4CCOC4)c3)[nH]2)ccc1[N+](=O)[O-] (some centres not stated) | –
56.2 | – | Cc1cc(-c2ccc(CN3CCCC3c3cccc(N[C@H]4CCOC4)c3)[nH]2)ccc1[N+](=O)[O-] (some centres not stated) | –
53.5 | – | Cc1cc(-c2ccc(CN3CCCC3c3cccc(N4CCC(O)C4)c3)[nH]2)ccc1[N+](=O)[O-] (configuration not stated) | –
46.9 | – | CCNC(=O)c1cc(-c2ccc(CN3CCCC3c3ccc(N(C)C)cc3)[nH]2)ccc1[N+](=O)[O-] (configuration not stated) | –
33 | – | CN(C)c1ccc(C2CCCN2Cc2ccc(-c3ccc(C#N)cc3)[nH]2)cc1 (configuration not stated) | –
26.9 | 17.8 | CN(C)c1ccc(C2SCCN2Cc2ccc(-c3ccc([N+](=O)[O-])cc3)[nH]2)cc1 (configuration not stated) | –
25 | – | CN(C)C(=O)c1cc(-c2ccc(CN3CCCC3c3ccc(N(C)C)cc3)[nH]2)ccc1[N+](=O)[O-] (configuration not stated) | –
24 | – | CN(C)c1ccc(C2CCCN2Cc2cnc(-c3ccc([N+](=O)[O-])cc3)[nH]2)cc1 (configuration not stated) | –
17.9 | – | CN(C)c1ccc(C2CCCN2Cc2c[nH]c(-c3ccc([N+](=O)[O-])cc3)c2)cc1 (configuration not stated) | –
17.7 | – | CN(C)c1ccc(C2CCCN2Cc2ncc(-c3ccc([N+](=O)[O-])cc3)[nH]2)cc1 (configuration not stated) | –
16.2 | 8.47 | CN(C)c1ccc(C2CCCCN2Cc2ccc(-c3ccc([N+](=O)[O-])cc3)[nH]2)cc1 (configuration not stated) | –
14.8 | – | CCn1c(CN2CCCC2c2ccc(N(C)C)cc2)ccc1-c1ccc([N+](=O)[O-])cc1 (configuration not stated) | –
13 | 16.2 | CN(C)c1ccc(C2CCCN2Cc2ccc(-c3ccc([N+](=O)[O-])cc3)[nH]2)cc1 (configuration not stated) | –
12.9 | 10.2 | CN(C)c1ccc(C2COCCN2Cc2ccc(-c3ccc4c(c3)OCO4)[nH]2)cc1 (configuration not stated) | –
12.2 | 7.15 | COc1cc(-c2ccc(CN3CCCC3c3ccc(N(C)C)cc3)[nH]2)ccc1[N+](=O)[O-] (configuration not stated) | half-life [3]: 7.8 min; Activity (LAD2 [5]): 19.8%
12.1 | 10.6 | Cc1ccc([N+](=O)[O-])c(-c2ccc(CN3CCCC3c3ccc(N(C)C)cc3)[nH]2)c1 (configuration not stated) | –
10.7 | – | CN(C)c1ccc(C2CCCN2Cc2ccc(-c3ccc([N+](=O)[O-])cc3)n2C)cc1 (configuration not stated) | –
7.77 | 52.5 | Cc1cc([N+](=O)[O-])ccc1-c1ccc(CN2CCCC2c2ccc(N(C)C)cc2)o1 (configuration not stated) | half-life [3]: 3.64 min
7.74 | 12.1 | Cc1cc(-c2ccc(CN3CCCC3c3cccc(N4CCCC4)c3)[nH]2)ccc1[N+](=O)[O-] (configuration not stated) | –
7.48 | 11 | Cc1cc(-c2ccc(CN3CCCC3c3ccc(N4CCCC4)cc3)[nH]2)ccc1[N+](=O)[O-] (configuration not stated) | half-life [3]: 4.59 min
